The results in this text go back to patent EP4631940A1, “COMPOUND TARGETING PAN-KRAS PROTEIN DEGRADATION AGENT AND USE THEREOF” (Betta Pharmaceuticals Co., Ltd., priority 2022, dated 2024).

Series [1] relates to SW620. Kind of series: Cell proliferation experiment (CellTiter-Glo). The format is cell-based. As to conditions: Homo sapiens, SW-620, 96 h, read-out: IC50(nM) SW620.
In series [2] the target is T1, KRAS G12D (Homo sapiens, UniProt P01116, G12D).
Series [3] deals with AGS. Kind of series: Cell proliferation experiment (CellTiter-Glo). The format is cell-based. The settings on record: Homo sapiens, AGS, 96 h, read-out: IC50(nM) AGS.
Series [4] has as its target T1, KRAS G12D. Kind of series: cell-based. As to conditions: AGS.
Series [5] can be described thus: in vitro. As to conditions: mouse, microsomes.
Series [6] in a line: in vitro. The settings on record: rat, microsomes.
Series [7] in a line: in vitro. The settings on record: human, microsomes.
Series [8] can be described thus: in vitro. As to conditions: dog, microsomes.

T1 sequence (P01116 1-188 isoform P01116-2 G12D): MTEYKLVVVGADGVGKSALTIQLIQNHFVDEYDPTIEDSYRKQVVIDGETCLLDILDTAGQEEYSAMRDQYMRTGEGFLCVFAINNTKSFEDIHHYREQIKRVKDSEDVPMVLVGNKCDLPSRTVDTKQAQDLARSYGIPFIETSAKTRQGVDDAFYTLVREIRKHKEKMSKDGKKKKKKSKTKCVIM

As usually defined, the IC50 is the concentration that inhibits the measured activity by half. Turning to `C=C1CN2[C@H](COC(=O)N3CCC4(CC3)CC(CNC(=O)C[C@H](NC(=O)[C@@H]3C[C@@H](O)CN3C(=O)C(c3cc(C)no3)C(C)C)c3ccc(-c5scnc5C)cc3)C4)CC[C@@]2(COc2nc(N3CCC[C@@](C)(O)C3)c3cnc(-c4cc(O)cc5ccc(F)c(CC)c45)c(F)c3n2)C1` (single isomer, unassigned) [Compound 139], the figures for the IC50 in series [1] and in series [3] were 2040 nM and 84 nM, respectively. The same compound came in with a DC50 in series [2] of 31 nM. For the same compound, the Dmax in series [4] stood at 95%.

In the case of `CCc1c(F)ccc2cc(O)cc(-c3ncc4c(N5CCC[C@@](C)(O)C5)nc(OCCN5CCC(COc6ccc(-c7cn([C@H](C(=O)N8C[C@H](O)C[C@H]8C(=O)N[C@@H](C)c8ccc(-c9scnc9C)cc8)C(C)C)nn7)cc6)CC5)nc4c3F)c12` [Compound 67], the IC50 is 1720 nM in series [1] and 40 nM in series [3]. In series [2], the DC50 amounted to 22 nM. The Dmax in series [4] amounted to 78%.

For orientation: microsomal CLint means the rate of metabolic loss divided by the concentration. Lower therefore signals greater metabolic stability. On to `CCc1c(F)ccc2cc(O)cc(-c3ncc4c(N5CCC[C@@](C)(O)C5)nc(OCC5(CN6CCC(F)(COc7cc([C@H](C(=O)N8C[C@H](O)C[C@H]8C(=O)N[C@@H](C)c8ccc(-c9scnc9C)cc8)C(C)C)on7)CC6)CC5)nc4c3F)c12` [Compound 100], for which the IC50 in series [1] worked out at 38 nM; in series [3], 11 nM. Moreover, in series [2], the DC50 amounted to 9.5 nM. Besides, the microsomal CLint in series [5] came to 3.2 µL/min/mg; in series [6] it was 7.9 µL/min/mg; in series [7], 47 µL/min/mg; in series [8] it was 57.5 µL/min/mg. Besides, the Dmax in series [4] was determined as 95%.

`CCc1c(F)ccc2cc(O)cc(-c3ncc4c(N5CCC[C@@](C)(O)C5)nc(OCC5(CN6CCC7(CC6)CN(c6cc([C@H](C(=O)N8C[C@H](O)C[C@H]8C(=O)N[C@@H](C)c8ccc(-c9scnc9C)cc8)C(C)C)on6)C7)CC5)nc4c3F)c12` [Compound 105] displayed a DC50 in series [2] of 8.9 nM. For the same compound, the microsomal CLint stood at 13.3 µL/min/mg in series [5], 5.9 µL/min/mg in series [6], 9.9 µL/min/mg in series [7] and 28.5 µL/min/mg in series [8]. The IC50 in series [3] came out at 12 nM. Also, the Dmax in series [4] came to 95%.

Turning to `CCc1c(F)ccc2cc(O)cc(-c3ncc4c(N5CCC[C@@](C)(O)C5)nc(OCC5(CN6CCN(CC7CCN(c8cc([C@H](C(=O)N9C[C@H](O)C[C@H]9C(=O)N[C@@H](C)c9ccc(-c%10scnc%10C)cc9)C(C)C)on8)CC7)CC6)CC5)nc4c3F)c12` [Compound 111], in series [2], the DC50 worked out at 21 nM. Further, the microsomal CLint in series [5] was determined as 10.6 µL/min/mg; in series [6], 15.7 µL/min/mg; in series [7], 21.7 µL/min/mg; in series [8], 8.4 µL/min/mg. For the same compound, in series [3], the IC50 is 20 nM. The Dmax in series [4] is 95%.

Consider `CCc1c(F)ccc2cc(O)cc(-c3ncc4c(N5CCC[C@@](C)(O)C5)nc(OCC5(CN6C[C@@H]7CN(c8cc([C@H](C(=O)N9C[C@H](O)C[C@H]9C(=O)N[C@@H](C)c9ccc(-c%10scnc%10C)cc9)C(C)C)on8)C[C@@H]7C6)CC5)nc4c3F)c12` [Compound 113], for which the IC50 in series [1] came to 49 nM; in series [3], 8.3 nM. Also, the DC50 in series [2] was determined as 9.3 nM. The Dmax in series [4] was determined as 95%.

`CCc1c(F)ccc2cc(O)cc(-c3ncc4c(N5CCC[C@@](C)(O)C5)nc(OCC5(CN6CCC(Oc7cc([C@H](C(=O)N8C[C@H](O)C[C@H]8C(=O)N[C@@H](C)c8ccc(-c9scnc9C)cc8)C(C)C)on7)CC6)CC5)nc4c3F)c12` [Compound 114, (2S,4R)-1-((R)-2-(3-((1-((1-(((7-(8-ethyl-7-fluoro-3-hydroxynaphthalen-1-yl)-8-fluoro-4-((R)-3-hydroxy-3-methylpiperidin-1-yl)pyrido[4,3-d]pyrimidin-2-yl)oxy)methyl)cyclopropyl)methyl)piperidin-4-yl)oxy)isoxazol-5-yl)-3-methylbutanoyl)-4-hydroxy-N-((S)-1-(4-(4-methylthiazol-5-yl)phenyl)ethyl)pyrrolidine-2-carboxamide]: the DC50 in series [2] amounted to 18 nM. For the same compound, the microsomal CLint in series [5] was 18.9 µL/min/mg; in series [6], 25.2 µL/min/mg; in series [7] it was 46.5 µL/min/mg; in series [8], 50.5 µL/min/mg. Besides, the IC50 in series [3] is 13 nM. Also, the Dmax in series [4] was 95%.

In turn, `CCc1c(F)ccc2cc(O)cc(-c3ncc4c(N5CCC[C@@](C)(O)C5)nc(OCC5(CN6CCC(N7CCN(c8cc([C@H](C(=O)N9C[C@H](O)C[C@H]9C(=O)N[C@@H](C)c9ccc(-c%10scnc%10C)cc9)C(C)C)on8)CC7)CC6)CC5)nc4c3F)c12` [Compound 115] yielded a DC50 in series [2] of 21 nM. Further, the microsomal CLint turned out to be 15.9 µL/min/mg in series [5], 13.8 µL/min/mg in series [6], 32.1 µL/min/mg in series [7] and 18.3 µL/min/mg in series [8]. Besides, in series [3], the IC50 stood at 29 nM. The same compound came in with a Dmax in series [4] of 95%.

For the compound `CCc1c(F)ccc2cc(O)cc(-c3ncc4c(N5CCC[C@@](C)(O)C5)nc(OCC5(CN6CCC(c7ccc(-c8cn([C@H](C(=O)N9C[C@H](O)C[C@H]9C(=O)N[C@@H](C)c9ccc(-c%10scnc%10C)cc9)C(C)(C)C)nn8)cc7)CC6)CC5)nc4c3F)c12` [Compound 119], the microsomal CLint in series [5] was found to be 10.4 µL/min/mg; in series [6], 9.1 µL/min/mg; in series [7] it was 6.1 µL/min/mg; in series [8], 14.9 µL/min/mg. Besides, the IC50 in series [3] was determined as 37 nM.

Regarding `C=C1CN2[C@H](COc3ccc(-c4cn([C@H](C(=O)N5C[C@H](O)C[C@H]5C(=O)N[C@@H](C)c5ccc(-c6scnc6C)cc5)C(C)C)nn4)cn3)CC[C@@]2(COc2nc(N3CCC[C@@](C)(O)C3)c3cnc(-c4cc(O)cc5ccc(F)c(CC)c45)c(F)c3n2)C1` [Compound 124], the IC50 in series [1] was found to be 135 nM; in series [3], 15 nM. For the same compound, the DC50 in series [2] is 21 nM. Further, the microsomal CLint in series [5] worked out at 18.6 µL/min/mg; in series [6], 9.1 µL/min/mg; in series [7], 49.7 µL/min/mg; in series [8], 88 µL/min/mg. For the same compound, the Dmax in series [4] came to 95%.

For `CCc1c(F)ccc2cc(O)cc(-c3ncc4c(N5CCC[C@@](C)(O)C5)nc(OCC5(CN6CCN(c7cnc(-c8cn([C@H](C(=O)N9C[C@H](O)C[C@H]9C(=O)N[C@@H](C)c9ccc(-c%10scnc%10C)cc9)C(C)C)nn8)cn7)CC6)CC5)nc4c3F)c12` [Compound 134], the results for the IC50 in series [1] and in series [3] were 58 nM and 10 nM, respectively. The DC50 in series [2] was 5.9 nM. Besides, the microsomal CLint came to 6.4 µL/min/mg in series [5], 3 µL/min/mg in series [6], 28.4 µL/min/mg in series [7] and 5.5 µL/min/mg in series [8]. In addition, in series [4], the Dmax stood at 95%.

As for `CCc1c(F)ccc2cc(O)cc(-c3ncc4c(N5CCC[C@@](C)(O)C5)nc(OCC5(CN6CCC(n7cc(-c8cn([C@H](C(=O)N9C[C@H](O)C[C@H]9C(=O)N[C@@H](C)c9ccc(-c%10scnc%10C)cc9)C(C)C)nn8)cn7)CC6)CC5)nc4c3F)c12` [Compound 138], the IC50 turned out to be 102 nM in series [1] and 14 nM in series [3]. The same compound had a DC50 in series [2] of 13 nM. In addition, the microsomal CLint in series [5] is 13.6 µL/min/mg; in series [6], 5.7 µL/min/mg; in series [7] it was 11.2 µL/min/mg; in series [8] it was 25.5 µL/min/mg. Further, the Dmax in series [4] is 95%.

Regarding `CCc1c(F)ccc2cc(O)cc(-c3ncc4c(N5CCC[C@@](C)(O)C5)nc(OC[C@]56CCCN5[C@@H](COc5ncc(-c7cn([C@H](C(=O)N8C[C@H](O)C[C@H]8C(=O)N[C@@H](C)c8ccc(-c9scnc9C)cc8)C(C)C)nn7)cn5)CC6)nc4c3F)c12` [Compound 158, (2S,4R)-1-((S)-2-(4-(2-(((3R,7aR)-7a-(((7-(8-ethyl-7-fluoro-3-hydroxynaphthalen-1-yl)-8-fluoro-4-((R)-3-hydroxy-3-methylpiperidin-1-yl)pyrido[4,3-d]pyrimidin-2-yl)oxy)methyl)cyclopropyl)hexahydro-1H-pyrrolizin-3-yl)methoxy)pyrimidin-5-yl)-1H-1,2,3-triazol-1-yl)-3-methylbutanoyl)-4-hydroxy-N-(((S)-1-(4-(4-methylthiazol-5-yl)phenyl)ethyl)pyrrolidine-2-carboxamide], the DC50 in series [2] came to 4.1 nM. In series [3], the IC50 is 18 nM. Moreover, the Dmax in series [4] was 95%.

For the compound `CCc1c(F)ccc2cc(O)cc(-c3ncc4c(N5CCC[C@@](C)(O)C5)nc(OC[C@]56CCCN5[C@@H](COc5cnc(-c7cn([C@H](C(=O)N8C[C@H](O)C[C@H]8C(=O)N[C@@H](C)c8ccc(-c9scnc9C)cc8)C(C)C)nn7)cn5)CC6)nc4c3F)c12` [Compound 159], in series [2], the DC50 amounted to 2.3 nM. The half-maximal inhibitory concentration (IC50) in series [3] stood at 6.2 nM. Further, in series [4], the Dmax came to 95%.

As for `CCc1c(F)ccc2cc(O)cc(-c3ncc4c(N5CCC[C@@](C)(O)C5)nc(OCC5(CN6CCC(c7ccc(-c8cn([C@H](C(=O)N9C[C@H](O)C[C@H]9C(=O)N[C@@H](C)c9ccc(-c%10scnc%10C)cc9)C(C)C)nn8)cn7)CC6)CC5)nc4c3F)c12` [Compound 203], the half-maximal inhibitory concentration (IC50) amounted to 47 nM in series [1] and 11 nM in series [3]. The same compound showed a DC50 in series [2] of 14 nM. This compound returned a Dmax in series [4] of 95%.
